Assay results reported in ChEMBL document CHEMBL1201862, “PubChem BioAssay data set” (2004).
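Values below derive from 48-hour exposures of cells grown in 96-well plates, with endpoints linearly interpolated between the two concentrations bracketing the appropriate inhibition level. GI50 marks 50% less growth.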 Active and inactive are the calls of the source. Rule as the data show it: active = GI50 up to about 1.1 µM and inactive = higher.

Legend:
Experiment in all cases: NCI-60 cell line screen, 48 h
A498 = test system: A498
CCRF-CEM = test system: CCRF-CEM
HCT-116 = test system: HCT-116
HCT-15 = test system: HCT-15
HOP-92 = test system: HOP-92
K562 = test system: K562
LOX IMVI = test system: LOX IMVI
M14 = test system: M14
MDA-MB-435 = test system: MDA-MB-435
MDA-N = test system: MDA-N
NCI/ADR-RES = test system: NCI/ADR-RES
OVCAR-3 = test system: OVCAR-3
OVCAR-8 = test system: OVCAR-8
SK-MEL-28 = test system: SK-MEL-28
SK-OV-3 = test system: SK-OV-3
SR = test system: SR
UO-31 = test system: UO-31
HT-29 = test system: HT-29
HOP-62 = test system: HOP-62
Hs-578T = test system: Hs-578T

Measured: GI50

CC1(C)OC(CCO)CN1C(=O)OCc1ccccc1 (stereo not drawn)
inactive: A498 > 100 µM | CCRF-CEM > 100 µM | HCT-116 > 100 µM | HOP-92 > 100 µM | K562 > 100 µM | LOX IMVI > 100 µM | M14 > 100 µM | MDA-MB-435 > 100 µM | MDA-N > 100 µM | NCI/ADR-RES > 100 µM | OVCAR-3 > 100 µM | OVCAR-8 > 100 µM | SK-MEL-28 > 100 µM | SK-OV-3 > 100 µM | SR > 100 µM | UO-31 > 100 µM
> 100 µM: HCT-15

COC(=O)C1=C(C(=O)OC)C(Cc2ccccc2)(OO)OC1=O (stereo not drawn)
active: CCRF-CEM 1.04 µM
inactive: HCT-116 3.35 µM | HOP-92 5.94 µM | HT-29 3.17 µM | K562 2.7 µM | LOX IMVI 3.59 µM | M14 3.8 µM | MDA-MB-435 3.52 µM | MDA-N 4.03 µM | NCI/ADR-RES 7.82 µM | OVCAR-3 4.33 µM | OVCAR-8 18.4 µM | SK-MEL-28 7.76 µM | SK-OV-3 29 µM | SR 3.52 µM | UO-31 5.18 µM
3.21 µM: HCT-15

N#Cc1nc(/C=C/c2cccs2)oc1N
94.4 µM: HCT-15
inactive: A498 > 100 µM | CCRF-CEM 25.4 µM | HCT-116 > 100 µM | HOP-62 > 100 µM | HOP-92 35.8 µM | HT-29 > 100 µM | Hs-578T > 100 µM | K562 82.4 µM | LOX IMVI > 100 µM | M14 97.5 µM | MDA-MB-435 > 100 µM | MDA-N > 100 µM | OVCAR-8 > 100 µM | SK-MEL-28 > 100 µM | SK-OV-3 > 100 µM | SR 13.1 µM | UO-31 10.4 µM

CC1C2CC(CC2N)C1(C)C (stereo not drawn)
inactive: A498 > 100 µM | CCRF-CEM > 100 µM | HCT-116 > 100 µM | HOP-62 > 100 µM | HOP-92 > 100 µM | HT-29 > 100 µM | Hs-578T > 100 µM | K562 > 100 µM | M14 > 100 µM | MDA-MB-435 > 100 µM | MDA-N > 100 µM | OVCAR-3 > 100 µM | OVCAR-8 > 100 µM | SK-MEL-28 > 100 µM | SK-OV-3 > 100 µM | SR > 100 µM | UO-31 > 100 µM

CCN(CC)CCCNC(=O)c1cc2cc(NC(=O)c3cc4cc([N+](=O)[O-])ccc4[nH]3)ccc2[nH]1
> 100 µM: HCT-15
inactive: A498 27.4 µM | HCT-116 > 100 µM | HOP-62 28.6 µM | HOP-92 37.5 µM | HT-29 35 µM | K562 > 100 µM | M14 > 100 µM | MDA-MB-435 51.1 µM | MDA-N 70.1 µM | NCI/ADR-RES > 100 µM | OVCAR-3 7.89 µM | OVCAR-8 > 100 µM | SK-MEL-28 30.3 µM | SK-OV-3 > 100 µM | SR > 100 µM | UO-31 > 100 µM

O=c1c(-c2ccccc2F)coc2cc(F)ccc12
inactive: A498 > 100 µM | CCRF-CEM > 100 µM | HCT-116 > 100 µM | HOP-62 > 100 µM | HOP-92 > 100 µM | HT-29 > 100 µM | Hs-578T > 100 µM | LOX IMVI 34.8 µM | M14 > 100 µM | MDA-MB-435 > 100 µM | MDA-N > 100 µM | OVCAR-3 > 100 µM | OVCAR-8 > 100 µM | SK-MEL-28 > 100 µM | SK-OV-3 > 100 µM | UO-31 > 100 µM
> 100 µM: HCT-15
